Assay results as given in article PMC10609940, “Systemic Dendrimer-Peptide Therapies for Wet Age-Related Macular Degeneration” (Pharmaceutics, 2023).
Where a SMILES comes first, the peptide text is derived from it. [ ]: non-standard residue; d: D form. Cya = N[C@@H](CS(=O)(=O)O)C(=O)O

Key:
HUVEC cells [1] = assay: In vitro vessel (tube) formation assay on Matrigel; format: cell-based, human
Experimental: First, 96-well plates were coated with 75 µL of Matrigel and left at room temperature for 15 min before being placed into 37 °C incubators for an additional 30 min. Then, D-ALG1001 was dissolved at twice the desired concentration and 50 µL of the drug solution was added to the wells. HUVEC cells were then added to each well at a density of 70,000 cells/cm^2. Live-cell images were taken at 12 h for analysis.
To compare the dose–response efficacy of free and D-ALG in a physiologically relevant model, we utilized an in vitro model of blood vessel formation. HUVEC cells were treated with a gradient concentration of D-ALG and ALG-1001 for 24 h at three different magnitudes of doses. The cells were then seeded on Matrigel after which cells naturally migrate to form blood vessel-like tubule structures. The images were analyzed with the Angiogenesis Analyzer plug-in on ImageJ to extract relevant metrics that measure the connectivity and integrity of tube networks (Figure 3A and Figure S8).
Figure 3 In vitro inhibition of vessel formation. (A) Image analysis of HUVECs seeded onto a Matrigel matrix using the Angiogenesis Analyzer plug-in for ImageJ. […]

HUVEC cells [2] = assay: Wound-healing (scratch) assay; format: cell-based, human; conditions: HUVEC monolayer pretreated 24 h; 24 h after injury; dose not stated
Experimental: HUVEC cells were seeded at a density of 5 × 10^4 cells per well in 24-well plates and set aside for at least 72 h for a uniform monolayer of cells to form. Cells were treated with D-ALG1001 and ALG-1001 for 24 h. A centimeter-long scratch was introduced to the cell monolayer with the tip of a 200 µL pipette tip. Images were taken on a Nikon
In addition to cell morphological and motility changes measured by tube formation assays, we investigated the activity of D-ALG and ALG-1001 in a wound-healing assay. Previous studies have utilized this method to assess cell migration and proliferation. Monolayers of HUVECs were pretreated with D-ALG or ALG-1001 followed by scratching the monolayer with a pipette tip. Images were taken at the time of the wound and at 24 h after injury. The proliferative activity of endothelial cells can be measured by the area that was healed postinjury to the monolayer. Untreated cells managed to heal up to 80% of the initial damage after 24 h, while cells treated with D-ALG and ALG-1001 healed up to 50% of the initial wound area. […] Because neovascularization is driven in part by the proliferation and migration of endothelial cells in the disease area, reductions in these activities as observed in cells treated with D-ALG can modulate endothelial cell contributions to the neovascularization process.

[3] = system: phospho-ERK1/2 and phospho-FAK (Y397) in HUVEC cells; assay: Western blot of ERK and FAK pathway activation after VEGF stimulation; format: cell-based, human; conditions: 100 µM on a peptide basis, 24 h pretreatment, VEGF 5 min; trend
Experimental: HUVEC cells were seeded at a density of 5 × 10^4 cells per well in 24-well plates 24 h before treatment. Cells were treated with D-ALG1001 and ALG-1001 for 24 h before activation with VEGF for 5 min. Cells were collected and lysed for Western blotting using T-Per buffer (ThermoFisher) supplemented with PhosStop and proteinase inhibitor cocktail. Cells were lysed with Trizol and processed as previously described for qPCR analysis.
In brief, the concentration of protein was determined with the BCA protein assay kit (Thermo Scientific, Rockford, IL, USA). Equal amounts of protein were denatured and resolved on 4–15% TGX gels (Bio-Rad, Hercules, CA, USA). Gels were transferred to nitrocellulose membranes, blocked with 3% BSA at RT for 1 h and probed for GAPDH, FAK, pFAK, MAPK, and pMAPK at 4 °C overnight. Membranes were washed thrice before incubation with HRP-conjugated secondary antibodies followed by incubation with chemiluminescent substrate for visualization.
To elucidate the mechanism through which D-ALG and free ALG-1001 influence angiogenic function, we pretreated the cells with D-ALG and free ALG-1001 for 24 h. The cells were then stimulated with a high dose of exogenous VEGF for 5 min after which the samples were collected for Western blotting. […]

[4] = system: VEGF-A expression in HUVEC; assay: VEGF-A expression by endothelial cells (qPCR); format: cell-based, human; conditions: HUVEC coincubated with VEGF-A
[5] = system: IL1β and TNFα expression in RAW264.7 cells; assay: In vitro inflammation model, LPS-stimulated macrophages (qPCR); format: cell-based, Murine; conditions: 24 h pretreatment, LPS 3 h
[6] = system: FAK, p-FAK (Y397), p44/42 ERK, phospho-p44/42 ERK in choroidal tissue; assay: ELISA of FAK and ERK pathway activation in choroid, laser CNV model; format: in vivo, Brown Norway rats; conditions: 150 µg peptide basis i.p. every 4 days
Experimental: (§1) On the day of CNV induction (Day 0), D-ALG1001 and ALG1001 was administered intraperitoneally at a dose of 150 µg on a peptide basis. Subsequent doses were administered every 4 days. At days 7 and 14, mice were sacrificed and enucleated. Eyes used for CNV image were fixed in 10% formalin for 1 h. Eyes used for qPCR, ELISA, and Western blotting were immediately stored at −80 °C until use.
In brief, 500 µL of T-Per supplemented with PhosStop and proteinase inhibitor cocktail was added to tubes containing dissected choroid. A scoop of 1.6 mm steel homogenization beads was added to each sample and then placed in TissueLyserLT (Qiagen, Germantown, MD, USA) at an oscillation frequency of 50 cycles/s for 15 min.
For protein extracted from tissues, total FAK and FAK (Phospho) [pY397] ELISA kits (Invitrogen) were used to quantify the level of protein expression, and the measured protein expression was normalized to the total protein amount of each sample as determined from BCA assays.
To evaluate the activation of FAK and ERK pathways, eyes were enucleated at set time points, and the choroidal tissue dissected out. Tissues were submerged in a mixture of T-per, proteinase inhibitor, and PhosStop with stainless-steel homogenization beads and homogenized to produce protein extracts. Total FAK, total ERK, p-FAK (Y397), and p-44/42 ERK ELISA kits were used to quantify the amount of total and phosphorylated proteins in FAK and ERK pathways. […] However, the level of total FAK protein in ALG-1001-treated animals was elevated at day 14.

[7] = system: VEGF-A, TNFα, IL1β expression in choroid; assay: qPCR of VEGF-A, TNFα and IL1β in choroid, laser CNV model; format: in vivo, Brown Norway rats; conditions: 150 µg peptide basis i.p. every 4 days, days 7 and 14, trend
[8] = system: choroidal neovascularization (CNV) area; assay: In vivo attenuation of CNV formation, intraperitoneal dosing, laser CNV model; set-up: species or system Brown Norway rats
Experimental: as §1
(§2) Eyes were mounted by introducing four radial relaxation cuts. […] All images were processed with ImageJ.
We then evaluated whether the improved protection and targeting of D-ALG allowed for less invasive administration routes. A laser was used to induce CNV at day 0, and the first dose (150 µg peptide basis) of ALG-1001 and D-ALG was administered intraperitoneally. The animals were dosed once every 4 days at 150 µg of peptide basis (7.5 mg/kg). Choroidal flatmounts of eyes at day 7 and 14 were imaged, and the CNV area was calculated using ImageJ.

[9] = system: choroidal neovascularization (CNV) area; assay: In vivo attenuation of CNV formation, intravitreal injection, laser CNV model; set-up: species or system Brown Norway rats; conditions: intravitreal injection after CNV induction; day 7
Description: as §2
A Micron III SLO scope and a laser attachment were used to induce CNV formation in mice. The laser CNV model was chosen due to its consistency in creating CNV and the progression of the CNV process. We first evaluated whether dendrimer conjugation impeded the peptide from attenuating CNV by first injecting free ALG-1001 and D-ALG intravitreally after CNV induction. The eyes were then collected on day 7 and the CNV area quantified.

SMILES: C[C@@H](O)[C@H](NC(=O)[C@H](CS(=O)(=O)O)NC(=O)CNC(=O)[C@H](CCCNC(=N)N)NC(=O)CN)C(=O)N1CCC[C@H]1C(=O)O [ALG-1001] (H-GRG[Cya]TP-OH; N-terminus and C-terminus assumed)
- vessel formation compared to untreated cells (HUVEC cells [1]; 1 mM, Angiogenesis Analyzer, ImageJ): significantly reduced vessel formation
- vessel formation, effect of lower doses (HUVEC cells [1]; doses below 1 mM): not effective
- initial wound area healed (HUVEC cells [2]): up to 50%
- phospho-ERK1/2 expression compared to untreated, VEGF stimulated controls [3]: lower levels
- phospho-FAK expression compared to untreated, VEGF stimulated controls [3]: lower levels
- VEGF production compared to the control [4]: did not have statistically significant increases
- impact on IL1β production ([5]; high and low dose): no impact
- reduction of TNFα expression ([5]; high dose 1 mM): 20%
- total ERK ([6]; day 7): remained relatively constant
- total ERK compared to untreated animals ([6]; day 14): slight trend in the reduction
- total FAK protein ([6]; day 14): elevated
- p-FAK protein compared to untreated controls ([6]; days 7 and 14): trend in the reduction
- IL1β expression [7]: only reduced at day 14
- TNFα level (relative expression) [7]: lower TNFα levels across both time points
- VEGF-A production (relative expression) [7]: lower VEGF-A production at 14 days only
- reduction of CNV area on day 14 ([8]; 150 µg peptide basis (7.5 mg/kg) intraperitoneally every 4 days, choroidal flatmounts, ImageJ): 20%
- CNV area at day 14 (in words) ([8]; 150 µg peptide basis intraperitoneally every 4 days): recovered
- formation of CNV after intravitreal administration [9]: significantly inhibited the formation of CNV
